# Reference: US4921850A, “3-propenylcephem derivative” (Eisai Co., Ltd., priority 1986, dated 1990)
# Where two headings read alike, the source gives them in different places.
# Tests used:
# Assay in all cases: Anti-bacterial activity (MIC), agar dilution
# Type in all cases: cell-based
# Escher. coli NIHJ = details: Escher. coli NIHJ, agar dilution, about 10^6 CFU/ml, 18 hours, 37° C.
# Experimental: (§1) MIC (μg/ml) were determined by an agar dilution method [Chemotherapy (Japan), 29, 76-79, 1981]. Overnight cultures of the bacterial strains in Mueller-Hinton broth were diluted to final concentration of about 10^6 CFU/ml, and 5 μl of each bacterial suspension was spotted onto Mueller-Hinton agar plates that contained twofold serial dilutions of antibiotics. MICs were measured after incubation for 18 hours at 37° C.
# Kleb. pneumoniae EK-6 = details: Kleb. pneumoniae EK-6, agar dilution, about 10^6 CFU/ml, 18 hours, 37° C.
# Experimental: as §1
# [1] = tested on: Morganella morganii EP-14; details: about 10^6 CFU/ml, 37° C.
# Experimental: as §1
# Pseud. aeruginosa EP-01 = details: Pseud. aeruginosa EP-01, agar dilution, about 10^6 CFU/ml, 18 hours, 37° C.
# Experimental: as §1
# Ser. marcescens ES-75 = details: Ser. marcescens ES-75, agar dilution, about 10^6 CFU/ml, 18 hours, 37° C.
# Experimental: as §1
# Staph. aureus 209-P = details: Staph. aureus 209-P, agar dilution, about 10^6 CFU/ml, 18 hours, 37° C.
# Experimental: as §1
# [2] = Escherichia coli, 18 h, read-out: MIC
# [3] = Klebsiella pneumoniae, EK6, 18 h, read-out: MIC
# [4] = Morganella morganii, EP14, 18 h, read-out: MIC
# [5] = Pseudomonas aeruginosa, EP01, 18 h, read-out: MIC
# [6] = Serratia marcescens, ES75, 18 h, read-out: MIC
# [7] = Staphylococcus aureus, 209P, 18 h, read-out: MIC
Compound,MIC (Escher. coli NIHJ; [2]) [µg/mL],MIC (Kleb. pneumoniae EK-6; [3]) [µg/mL],"MIC [1, 4] [µg/mL]",MIC (Pseud. aeruginosa EP-01; [5]) [µg/mL],MIC (Ser. marcescens ES-75; [6]) [µg/mL],MIC (Staph. aureus 209-P; [7]) [µg/mL],MIC (Escher. coli NIHJ) [µg/mL],MIC (Kleb. pneumoniae EK-6) [µg/mL],MIC ([1]; 18 hours) [µg/mL],MIC (Pseud. aeruginosa EP-01) [µg/mL],MIC (Ser. marcescens ES-75) [µg/mL],MIC (Staph. aureus 209-P) [µg/mL]
Nc1nc(/C(=N/OCF)C(=O)N[C@@H]2C(=O)N3C(C(=O)[O-])=C(/C=C/C[N+]4(CCO)CCOCC4)CS[C@H]23)ns1 [Example 37],0.05,≤ 0.025,0.05,1.56,0.1,0.2,–,–,–,–,–,–
Nc1nc(/C(=N/OCF)C(=O)N[C@@H]2C(=O)N3C(C(=O)[O-])=C(/C=C/C[N+]4(CC(O)CO)CCOCC4)CS[C@H]23)ns1 (stereo partly drawn) [Example 38],0.1,0.05,0.1,1.56,0.2,0.4,–,–,–,–,–,–
CC(O)C[N+]1(C/C=C/C2=C(C(=O)[O-])N3C(=O)[C@@H](NC(=O)/C(=N\OCF)c4nsc(N)n4)[C@H]3SC2)CCOCC1 (stereo partly drawn) [Example 39],0.05,≤ 0.025,0.05,1.56,0.1,0.2,–,–,–,–,–,–
NC(=O)C[N+]1(C/C=C/C2=C(C(=O)[O-])N3C(=O)[C@@H](NC(=O)/C(=N\OCF)c4nsc(N)n4)[C@H]3SC2)CCC(C(N)=O)CC1 (stereo partly drawn) [Example 40],≤ 0.025,≤ 0.025,≤ 0.025,0.8,≤ 0.025,0.4,–,–,–,–,–,–
Nc1nc(/C(=N/OCF)C(=O)N[C@@H]2C(=O)N3C(C(=O)[O-])=C(/C=C/C[N+]4(CCO)CC=C(C=NO)CC4)CS[C@H]23)ns1 (stereo partly drawn) [Example 42],≤ 0.025,0.05,≤ 0.025,1.56,≤ 0.025,0.2,–,–,–,–,–,–
NC(=O)C1=CC[N+](C/C=C/C2=C(C(=O)[O-])N3C(=O)[C@@H](NC(=O)/C(=N\OCF)c4nsc(N)n4)[C@H]3SC2)(CCO)CC1 (stereo partly drawn) [Example 43],≤ 0.025,≤ 0.025,≤ 0.025,0.8,≤ 0.025,0.2,–,–,–,–,–,–
CC[N+](C)(C/C=C/C1=C(C(=O)[O-])N2C(=O)[C@@H](NC(=O)/C(=N\OCF)c3nsc(N)n3)[C@H]2SC1)CCO (stereo partly drawn) [Example 44],0.05,≤ 0.025,0.05,1.56,0.1,0.4,–,–,–,–,–,–
CC[N+](C)(CC#N)C/C=C/C1=C(C(=O)[O-])N2C(=O)[C@@H](NC(=O)/C(=N\OCF)c3nsc(N)n3)[C@H]2SC1 (stereo partly drawn) [Example 45],≤ 0.025,≤ 0.025,≤ 0.025,0.8,0.1,0.4,–,–,–,–,–,–
CC(=O)NCC[N+](C/C=C/C1=C(C(=O)[O-])N2C(=O)[C@@H](NC(=O)/C(=N\OCF)c3nsc(N)n3)[C@H]2SC1)(CCO)CCO [Example 51],0.05,0.05,0.05,1.56,0.05,0.4,–,–,–,–,–,–
C[N+](C)(C/C=C/C1=C(C(=O)[O-])N2C(=O)[C@@H](NC(=O)/C(=N\OCF)c3nsc(N)n3)[C@H]2SC1)NC(N)=O [Example 53],0.05,0.05,0.05,0.8,0.1,0.8,–,–,–,–,–,–
CNC(=O)C[N+](C)(C)C/C=C/C1=C(C(=O)[O-])N2C(=O)[C@@H](NC(=O)/C(=N\OCF)c3nsc(N)n3)[C@H]2SC1 [Example 55],≤ 0.025,≤ 0.025,≤ 0.025,0.4,≤ 0.025,0.2,–,–,–,–,–,–
CN(C)C(=O)C[N+](C)(C)C/C=C/C1=C(C(=O)[O-])N2C(=O)[C@@H](NC(=O)/C(=N\OCF)c3nsc(N)n3)[C@H]2SC1 [Example 56],0.05,0.05,0.05,1.56,0.1,0.4,–,–,–,–,–,–
CNC(=O)[C@H](C)[N+](C)(C)C/C=C/C1=C(C(=O)[O-])N2C(=O)[C@@H](NC(=O)/C(=N\OCF)c3nsc(N)n3)[C@H]2SC1 [Example 58],≤ 0.025,0.05,0.05,1.56,0.05,0.2,–,–,–,–,–,–
CNC(=O)[C@@H](C)[N+](C)(C)C/C=C/C1=C(C(=O)[O-])N2C(=O)[C@@H](NC(=O)/C(=N\OCF)c3nsc(N)n3)[C@H]2SC1 [Example 59],≤ 0.025,≤ 0.025,≤ 0.025,1.56,≤ 0.025,0.4,–,–,–,–,–,–
C[N+](C)(C/C=C/C1=C(C(=O)[O-])N2C(=O)[C@@H](NC(=O)/C(=N\OCF)c3nsc(N)n3)[C@H]2SC1)[C@@H](CC(N)=O)C(N)=O [Example 60],≤ 0.025,0.05,≤ 0.025,1.56,≤ 0.025,0.2,–,–,–,–,–,–
C[N+](C)(C/C=C/C1=C(C(=O)[O-])N2C(=O)[C@@H](NC(=O)/C(=N\OCF)c3nsc(N)n3)[C@H]2SC1)[C@H](CC(N)=O)C(N)=O [Example 61],0.1,0.05,0.1,1.56,0.05,0.4,–,–,–,–,–,–
C[N+](C)(C/C=C/C1=C(C(=O)[O-])N2C(=O)[C@@H](NC(=O)/C(=N\OCF)c3nsc(N)n3)[C@H]2SC1)[C@@H](CO)C(N)=O [Example 62],≤ 0.025,≤ 0.025,≤ 0.025,0.4,≤ 0.025,0.2,–,–,–,–,–,–
C[N+](C)(C/C=C/C1=C(C(=O)[O-])N2C(=O)[C@@H](NC(=O)/C(=N\OCF)c3nsc(N)n3)[C@H]2SC1)[C@H](CO)C(=O)NCO [Example 63],≤ 0.025,0.05,≤ 0.025,0.8,≤ 0.025,0.4,–,–,–,–,–,–
C[N+](C)(C/C=C/C1=C(C(=O)[O-])N2C(=O)[C@@H](NC(=O)/C(=N\OCF)c3nsc(N)n3)[C@H]2SC1)CCO [Example 64],≤ 0.025,≤ 0.025,≤ 0.025,0.8,0.1,0.2,–,–,–,–,–,–
CC(O)C[N+](C)(C)CC=CC1=C(C(=O)[O-])N2C(=O)C(NC(=O)C(=NOCF)c3nsc(N)n3)C2SC1 (stereo not drawn) [Example 65],≤ 0.025,≤ 0.025,≤ 0.025,0.8,0.05,0.4,–,–,–,–,–,–
CC(O)C[N+](C)(C)CC=CC1=C(C(=O)[O-])N2C(=O)C(NC(=O)C(=NOCF)c3nsc(N)n3)C2SC1 (stereo not drawn) [Example 66],–,–,–,–,–,–,≤ 0.025,≤ 0.025,≤ 0.025,0.8,≤ 0.025,0.4
C[C@H](CO)[N+](C)(C)C/C=C/C1=C(C(=O)[O-])N2C(=O)[C@@H](NC(=O)/C(=N\OCF)c3nsc(N)n3)[C@H]2SC1 [Example 68],≤ 0.025,≤ 0.025,≤ 0.025,0.8,≤ 0.025,0.2,–,–,–,–,–,–
CC(C)(CO)[N+](C)(C)C/C=C/C1=C(C(=O)[O-])N2C(=O)[C@@H](NC(=O)/C(=N\OCF)c3nsc(N)n3)[C@H]2SC1 [Example 69],≤ 0.025,≤ 0.025,≤ 0.025,0.8,0.05,0.2,–,–,–,–,–,–
C[N+](C)(C/C=C/C1=C(C(=O)[O-])N2C(=O)[C@@H](NC(=O)/C(=N\OCF)c3nsc(N)n3)[C@H]2SC1)C(CO)(CO)CO [Example 70],≤ 0.025,≤ 0.025,≤ 0.025,0.8,0.1,0.1,–,–,–,–,–,–
C[N+](C)(C/C=C/C1=C(C(=O)[O-])N2C(=O)[C@@H](NC(=O)/C(=N\OCF)c3nsc(N)n3)[C@H]2SC1)CC(=O)NO [Example 72],≤ 0.025,≤ 0.025,≤ 0.025,0.8,≤ 0.025,0.4,–,–,–,–,–,–
C[N+](C)(C/C=C/C1=C(C(=O)[O-])N2C(=O)[C@@H](NC(=O)/C(=N\OCF)c3nsc(N)n3)[C@H]2SC1)CC(=O)NCC(N)=O [Example 73],0.05,0.05,0.1,1.56,0.05,0.4,–,–,–,–,–,–
C[N+](C)(C/C=C/C1=C(C(=O)[O-])N2C(=O)[C@@H](NC(=O)/C(=N\OCF)c3nsc(N)n3)[C@H]2SC1)CC(=O)N(CCO)CCO [Example 74],0.1,0.05,0.1,1.56,0.4,0.8,–,–,–,–,–,–
C[N+](C)(C/C=C/C1=C(C(=O)[O-])N2C(=O)[C@@H](NC(=O)/C(=N\OCF)c3nsc(N)n3)[C@H]2SC1)CC(=O)NCCO [Example 75],0.05,0.05,0.05,1.56,0.2,0.4,–,–,–,–,–,–
